The species named for data set [1] is Homo sapiens. The experiment in a line: Binding affinity to human telomeric 23 G-quadruplex DNA assessed as change in melting temperature at 10 molequiv after 30 mins by CD spectra analysis.
For data set [2], the species on record is Homo sapiens. Description: Binding affinity to human telomeric 26 G-quadruplex DNA assessed as change in melting temperature at 10 molequiv after 30 mins by CD spectra analysis.
For data set [3], the species on record is Homo sapiens. The experiment in a line: Binding affinity to human telomeric 23-p G-quadruplex DNA assessed as change in melting temperature at 10 molequiv after 30 mins by CD spectra analysis.
Data set [4] is filed under the species Homo sapiens. The experiment in a line: Binding affinity to human telomeric 23-p G-quadruplex DNA assessed as increase in melting temperature at lower concentration after 30 mins by CD spectra analysis.
The species entered for data set [5] is Homo sapiens. Description: Binding affinity to human telomeric 23 G-quadruplex DNA assessed as increase in melting temperature up to 300 uM after 30 mins by CD spectra analysis.
The species entered for data set [6] is Homo sapiens. The experiment in a line: Binding affinity to human telomeric 26 G-quadruplex DNA assessed as increase in melting temperature up to 300 uM after 30 mins by CD spectra analysis.
Data set [7] is described as follows: Binding affinity to 12-mer duplex DNA (unknown origin) at 10 molequiv after 30 mins by CD spectra analysis.
Data set [8] in a line: Binding affinity to human Cy5-labeled telomeric 26 G-quadruplex DNA by […] analysis.
The nature of data set [9]: Binding affinity to 5'-FAM/3'-TAMRA labelled F21T G-quadruplex DNA (unknown origin) assessed as change in melting temperature at 4 uM by FRET assay.
For data set [10], the species on record is Homo sapiens. Description: Binding affinity to G-quadruplex DNA in human BJeH-LT cells at 1 uM after 24 hrs by hoechst staining-based immunofluorescence analysis. Type of data set: cell-based.
Data set [11] has as its system BJeH-LT. Description: Induction of DNA damage in human BJeH-LT cells assessed as increase in gamma-H2AX foci formation at 1 uM after 24 hrs by hoechst staining-based immunofluorescence analysis. Type of data set: functional, cell-based.
For a further data set, the system named is hTERT-BJ. Description: Induction of DNA damage in human hTERT-BJ cells assessed as increase in gamma-H2AX foci formation at 1 uM after 24 hrs by hoechst staining-based immunofluorescence analysis. Type of data set: cell-based.
Data set [12] deals with BJeH-LT. The experiment in a line: Induction of DNA damage in human BJeH-LT cells assessed as increase in telomere's dysfunction induced foci positive nuclei at 1 uM after 24 hrs by hoechst staining-based immunofluorescence analysis. It is filed as functional, cell-based.
A short description of data set [13]: Binding affinity to 5'-FAM/3'-TAMRA labelled F21T G-quadruplex DNA (unknown origin) assessed as increase in melting temperature at 4 uM in presence of 5 to 10 uM 12-mer duplex DNA by FRET assay.
Data set [14] deals with BJeH-LT. The experiment in a line: Induction of DNA damage in human BJeH-LT cells assessed as increase in gamma-H2AX foci formation at 1 uM after 24 hrs followed by compound washout by hoechst staining-based immunofluorescence analysis. It is filed as functional, cell-based.
For data set [15], the species on record is Homo sapiens. The experiment in a line: Binding affinity to human telomeric 23-p G-quadruplex DNA assessed as increase in melting temperature up to 240 uM after 30 mins by CD spectra analysis.
For data set [16], the species on record is Homo sapiens. Description: Binding affinity to human Cy5-labeled telomeric 26 G-quadruplex DNA at 10^-1 to 10^4 nM by […] analysis.
The subject of data set [17] is BJeH-LT. The experiment in a line: Induction of DNA damage in human BJeH-LT cells assessed as increase in gamma-H2AX foci formation at >1 uM after 24 hrs by hoechst staining-based immunofluorescence analysis. It is filed as functional, cell-based.
In data set [18] the test system is DLD-1. Description: Antiproliferative activity against human DLD1 cells harboring BRCA2 up to 2 uM after 6 days by MTT assay. It is filed as functional, cell-based.
In data set [19] the test system is DLD-1. The experiment in a line: Antiproliferative activity against human DLD1 cells deficient BRCA2 up to 2 uM after 6 days by MTT assay. Type of data set: functional, cell-based.
Data set [20] is filed under the species Homo sapiens. The experiment in a line: Inhibition of PARP in human BJeH-LT cells assessed as reduction of Poly(ADP-ribosyl)ation at 1 uM preincubated for 16 hrs followed by [3H]NAD addition measured after 10 mins by liquid scintillation counting method. Type of data set: cell-based.
Data set [21] addresses Poly [ADP-ribose] polymerase 1 (Homo sapiens, UniProt P09874). Description: Inhibition of recombinant human PARP1 expressed in Escherichia coli assessed as reduction of Poly(ADP-ribosyl)ation after 15 mins in presence of [3H]NAD+/cleaved DNA/histones by scintillation counting method.

Active and inactive are the calls of the source. No cut-off for these calls is given here.

Sequence of Poly [ADP-ribose] polymerase 1 (P09874 whole entry): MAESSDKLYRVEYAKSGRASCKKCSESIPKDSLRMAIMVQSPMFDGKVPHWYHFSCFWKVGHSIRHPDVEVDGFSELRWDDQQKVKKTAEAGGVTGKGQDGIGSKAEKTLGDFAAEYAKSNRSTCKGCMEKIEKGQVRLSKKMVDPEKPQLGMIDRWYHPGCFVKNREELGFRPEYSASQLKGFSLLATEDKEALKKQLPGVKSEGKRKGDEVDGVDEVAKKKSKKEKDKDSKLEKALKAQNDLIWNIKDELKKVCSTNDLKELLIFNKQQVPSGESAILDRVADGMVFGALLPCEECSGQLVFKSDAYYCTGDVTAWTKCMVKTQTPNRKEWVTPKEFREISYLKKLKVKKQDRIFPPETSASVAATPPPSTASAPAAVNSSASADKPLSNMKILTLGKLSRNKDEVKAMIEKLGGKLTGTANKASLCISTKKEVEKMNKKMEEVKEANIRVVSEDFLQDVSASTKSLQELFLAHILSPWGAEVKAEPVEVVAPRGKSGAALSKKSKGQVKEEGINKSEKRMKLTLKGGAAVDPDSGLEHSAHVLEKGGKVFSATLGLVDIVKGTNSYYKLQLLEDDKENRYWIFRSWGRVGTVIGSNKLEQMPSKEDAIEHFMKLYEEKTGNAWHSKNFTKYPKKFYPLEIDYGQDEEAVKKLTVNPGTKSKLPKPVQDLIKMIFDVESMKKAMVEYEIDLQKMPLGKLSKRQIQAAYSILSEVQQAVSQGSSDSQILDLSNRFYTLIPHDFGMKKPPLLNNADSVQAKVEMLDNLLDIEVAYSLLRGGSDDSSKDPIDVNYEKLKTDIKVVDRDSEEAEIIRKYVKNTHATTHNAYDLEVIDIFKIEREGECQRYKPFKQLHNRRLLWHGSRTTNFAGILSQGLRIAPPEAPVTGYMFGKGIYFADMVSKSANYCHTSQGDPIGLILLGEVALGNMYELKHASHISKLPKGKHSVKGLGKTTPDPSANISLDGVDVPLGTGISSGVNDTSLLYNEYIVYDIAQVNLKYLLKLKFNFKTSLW

As for `Cn1c(=O)c2cc(C(=O)NCCN3CCC(Cc4ccccc4)CC3)sc2c2ccccc21`, the ΔTm in the data set listed under Homo sapiens [1] turned out to be 5.8 °C; in the data set filed under Homo sapiens [2] it was 5.5 °C; in the data set filed under Homo sapiens [3], 7 °C; in [9], 4.5 °C. Further, the result in the data set filed under Homo sapiens [4], in the data set listed under Homo sapiens [5], in the data set filed under Homo sapiens [6], in the data set filed under Homo sapiens [10], in the data set with BJeH-LT [11] and in the data set with BJeH-LT [12] was Active. Besides, the result in data set [13] was Active. Further, the outcome (in [7]; in the data set on BJeH-LT [14]) was inactive. The compound also registered an equilibrium dissociation constant (Kd) in data set [8] of 240 nM. Also, the Activity entry with hTERT-BJ is “Non-Toxic”.
In the case of `COC(=O)c1cc2c(=O)[nH]c3ccccc3c2s1`, the figures for the ΔTm in the data set listed under Homo sapiens [1], in the data set listed under Homo sapiens [2] and in the data set listed under Homo sapiens [3] were 1.5 °C, 2.2 °C and 1.9 °C, respectively. Moreover, the outcome in the data set listed under Homo sapiens [10] and in the data set on BJeH-LT [11] was Active. Further, the Activity entry with hTERT-BJ is “Non-Toxic”. The outcome with BJeH-LT [12] and in the data set on BJeH-LT [14] was inactive.
Regarding `O=C(NCCN1CCC(Cc2ccccc2)CC1)c1cc2c(=O)[nH]c3ccccc3c2s1`, the ΔTm in the data set filed under Homo sapiens [1] was 0.3 °C; in the data set listed under Homo sapiens [2] it was 2.6 °C; in the data set filed under Homo sapiens [3], 7.7 °C. Moreover, the result in the data set filed under Homo sapiens [15], in the data set filed under Homo sapiens [10], in the data set with BJeH-LT [11] and in the data set with BJeH-LT [12] was Active. For the same compound, the result (in data set [7]; in the data set with BJeH-LT [14]) was inactive. The Activity entry in the data set with hTERT-BJ is given as “Non-Toxic”.
In the case of `Cn1c(=O)c2ccccc2c2sc(C(=O)NCCN3CCC(Cc4ccccc4)CC3)cc21`, the thermal shift (ΔTm) in the data set listed under Homo sapiens [1] is 1.6 °C; in the data set listed under Homo sapiens [2], 3 °C; in the data set filed under Homo sapiens [3], 10.5 °C. Besides, the result in the data set listed under Homo sapiens [15], in the data set listed under Homo sapiens [10], in the data set with BJeH-LT [11] and in the data set on BJeH-LT [12] was Active. The result (in data set [7]; in the data set with BJeH-LT [14]) was inactive. Besides, the Activity entry in the data set with hTERT-BJ is on record as “Non-Toxic”.
`COC(=O)c1cc2c(=O)n(C)c3ccccc3c2s1`: the values for the ΔTm in the data set filed under Homo sapiens [1], in the data set listed under Homo sapiens [2] and in the data set listed under Homo sapiens [3] were 0.4 °C, 0.4 °C and 2.4 °C, respectively. Further, the result in the data set listed under Homo sapiens [16], in the data set with BJeH-LT [17] and in the data set on BJeH-LT [14] was inactive. The result in the data set filed under Homo sapiens [10] was Active.
With `Cc1nc2c(O)cccc2c(=O)[nH]1`, the ΔTm in the data set listed under Homo sapiens [1] was found to be 0 °C; in the data set filed under Homo sapiens [2] it was 1.1 °C; in the data set filed under Homo sapiens [3] it was 2.4 °C.
On to `Oc1nc(-c2ccc(C(F)(F)F)cc2)nc2c1CSCC2`, for which the outcome in the data set filed under Homo sapiens [10] was inactive.
As to `COC(=O)c1cc2c(s1)c1ccccc1c(=O)n2C`, the figures for the ΔTm in the data set filed under Homo sapiens [1], in the data set listed under Homo sapiens [2] and in the data set listed under Homo sapiens [3] were -0.8 °C, 1.4 °C and 1.4 °C, respectively. In addition, the outcome in the data set filed under Homo sapiens [10] and in the data set on BJeH-LT [11] was Active. The Activity result with hTERT-BJ was “Non-Toxic”. The result in the data set with BJeH-LT [12] and in the data set with BJeH-LT [14] was inactive.
Regarding `COC1CCN(C(=O)c2cc(Cc3n[nH]c(=O)c4ccccc34)ccc2F)CC1`, the ΔTm in the data set filed under Homo sapiens [1] stood at 0.1 °C; in the data set listed under Homo sapiens [2], 1.3 °C; in the data set filed under Homo sapiens [3], 2.6 °C. Moreover, the outcome in the data set listed under Homo sapiens [10] was inactive.
Consider `CN1C(=O)C2C=C(C(=O)NCCN3CCC(Cc4ccccc4)CC3)SC2c2ccccc21` (stereo unspecified), for which the result in the data set listed under Homo sapiens [10], in the data set with BJeH-LT [12], in the data set with DLD-1 [18] and in the data set with DLD-1 [19] was Active.
With `O=c1[nH]c2sccc2c2ccccc12`, the result in the data set filed under Homo sapiens [10], in the data set on BJeH-LT [11], in the data set with DLD-1 [18] and with DLD-1 [19] was inactive.
As to `COC(=O)c1cc2[nH]c(=O)c3ccccc3c2s1`, the thermal shift (ΔTm) in the data set filed under Homo sapiens [1] was found to be 0.9 °C; in the data set listed under Homo sapiens [2], 0.9 °C; in the data set listed under Homo sapiens [3] it was 3 °C. Further, in the data set filed under Homo sapiens [10], the result was Active. The outcome with BJeH-LT [17] and in the data set on BJeH-LT [14] was inactive.
Regarding `O=C(NCCN1CCC(Cc2ccccc2)CC1)c1cc2[nH]c(=O)c3ccccc3c2s1`, the values for the ΔTm in the data set listed under Homo sapiens [1], in the data set listed under Homo sapiens [2] and in the data set listed under Homo sapiens [3] were 0.7 °C, 2 °C and 4.2 °C, respectively. Also, in the data set filed under Homo sapiens [20], the inhibition entry was “Active”. For the same compound, in [21], the IC50 was 223 nM. Moreover, the outcome in the data set on BJeH-LT [14] was inactive.

(Values after ChEMBL document CHEMBL4043091, “Lead Discovery of Dual G-Quadruplex Stabilizers and Poly(ADP-ribose) Polymerases (PARPs) Inhibitors: A New Avenue in Anticancer Treatment” (J Med Chem, 2017).)
